This is an account of results in patent US9776972B2, “Pyrazole derivatives as arginine methyltransferase inhibitors and uses thereof” (priority 2013, dated 2017).

The IC50 is the concentration at which inhibition is half-maximal. Lower therefore signals greater potency.

SMILES strings stand for the structures.

One assay has as its target human PRMT8 (Homo sapiens, UniProt Q9NR22). Nature of the assay: PRMT8 Biochemical Assay (3H-SAM Flashplate, peptide substrate). Particulars: single experiment or average of multiple experiments. The gist of the method: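 Methylation of a biotin-tagged histone H4 peptide (residues 31-45) by recombinant PRMT8 was measured as 3H transfer from 3H-SAM, after a 30 min room-temperature compound preincubation in Bicine buffer pH 7.6. Reactions were quenched with unlabelled SAM to 400 uM final, then bound counts were read by streptavidin Flashplate. IC50 came from a Hill fit of % inhibition relative to max and SAH min controls.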

The next assay concerns the target T1, human PRMT1 (Homo sapiens, UniProt Q99873).
T1 construct: GST-tagged PRMT1; made in house; host or cells: High Five insect cells (baculovirus)
The experiment in a line: PRMT1 Biochemical Assay (3H-SAM Flashplate, peptide substrate). Particulars: single experiment or average of multiple experiments. The procedure, abridged: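 GST-tagged PRMT1 from baculovirus-infected cells, preincubated with compounds 30 min at room temperature in 20 mM Bicine pH 7.6, 1 mM TCEP, 0.005% BSG, 0.002% Tween 20. Reaction started with ³H-SAM plus biotinylated peptide, stopped with 300 µM cold SAM.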

human PRMT8, sequence (Q9NR22 whole entry, the tested form may be a part): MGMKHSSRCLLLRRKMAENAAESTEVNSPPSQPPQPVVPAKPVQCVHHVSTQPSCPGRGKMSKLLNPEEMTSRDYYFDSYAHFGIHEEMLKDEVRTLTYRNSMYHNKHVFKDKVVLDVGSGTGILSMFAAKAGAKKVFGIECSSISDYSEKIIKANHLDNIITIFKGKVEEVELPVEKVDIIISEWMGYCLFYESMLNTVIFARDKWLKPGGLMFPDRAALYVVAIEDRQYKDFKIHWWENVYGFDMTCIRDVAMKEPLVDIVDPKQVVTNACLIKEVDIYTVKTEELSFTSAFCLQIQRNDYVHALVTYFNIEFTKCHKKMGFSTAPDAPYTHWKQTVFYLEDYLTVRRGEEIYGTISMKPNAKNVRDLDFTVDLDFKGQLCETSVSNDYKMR
T1 sequence (Q99873 with tags, fused parts or gaps): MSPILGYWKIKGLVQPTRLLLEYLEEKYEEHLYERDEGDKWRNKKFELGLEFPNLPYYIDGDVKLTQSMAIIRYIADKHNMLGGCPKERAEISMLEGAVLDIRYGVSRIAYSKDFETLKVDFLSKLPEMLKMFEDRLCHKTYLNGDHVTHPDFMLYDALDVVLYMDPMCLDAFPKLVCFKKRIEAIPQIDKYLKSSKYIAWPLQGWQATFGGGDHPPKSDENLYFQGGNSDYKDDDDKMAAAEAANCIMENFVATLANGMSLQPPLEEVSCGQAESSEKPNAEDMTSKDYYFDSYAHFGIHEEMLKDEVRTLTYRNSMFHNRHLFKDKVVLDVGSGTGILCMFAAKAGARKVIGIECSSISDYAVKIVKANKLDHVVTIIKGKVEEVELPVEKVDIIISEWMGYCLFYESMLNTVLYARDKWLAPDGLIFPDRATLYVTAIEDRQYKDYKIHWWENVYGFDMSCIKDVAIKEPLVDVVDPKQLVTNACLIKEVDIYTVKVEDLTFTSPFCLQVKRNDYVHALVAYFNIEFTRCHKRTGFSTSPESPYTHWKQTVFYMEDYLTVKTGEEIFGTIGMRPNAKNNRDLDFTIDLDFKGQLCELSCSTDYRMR

As for `CC(C)CN1C(=O)COc2ccc(-c3n[nH]cc3CN(C)CCN)cc21` [Compound 191], the IC50 at human PRMT8 came to 4110 nM; on human PRMT1, 655 nM.

Turning to `CNCCN(C)Cc1c[nH]nc1-c1ccc(OCCCOC)cc1` [Compound 209], the IC50 against human PRMT8 was 483 nM; against human PRMT1 it was 5.29 nM.

`CNCCN(C)Cc1n[nH]cc1-c1ccc(OC(C)C)c(Cl)c1` [Compound 212]: the half-inhibitory concentration (IC50) came to 40.3 nM on human PRMT8 and 6.46 nM against human PRMT1.

With `NCCN(CCO)Cc1c[nH]nc1-c1ccc(F)cc1` [Compound 171], the IC50 against human PRMT8 worked out at 2630 nM; against human PRMT1 it was 929 nM.

With `CN(CCN1CCC1)Cc1c[nH]nc1-c1ccc(C#N)cc1` [Compound 185], the IC50 on human PRMT8 came out at 4370 nM; against human PRMT1, 1120 nM.

On to `COc1ccc(F)cc1-c1n[nH]cc1CN(C)CCN` [Compound 160], for which the values for the half-inhibitory concentration (IC50) at human PRMT8 and against human PRMT1 were 3010 nM and 167 nM, respectively.

For the compound `CNC(=O)c1cc(-c2n[nH]cc2CN(C)CCN)ccc1Oc1ccccc1` [Compound 227], the IC50 is 660 nM against human PRMT8 and 24.3 nM against human PRMT1.

As to `COc1ccc(-c2n[nH]cc2CN(C)CCN)c(Cl)c1` [Compound 146], the IC50 against human PRMT8 came to 1120 nM; at human PRMT1, 46.3 nM.

For `CCNC(=O)c1cccc(-c2n[nH]cc2CN(C)CCN)c1` [Compound 197], the IC50 against human PRMT8 turned out to be 2100 nM; against human PRMT1 it was 678 nM.

For the compound `Cc1cc(-c2n[nH]cc2CN(C)CCN)cc(C)c1OC(C)C` [Compound 199, N^1-((3-(4-isopropoxy-3,5-dimethylphenyl)-1H-pyrazol-4-yl)methyl)-N^1-methylethane-1,2-diamine], the 50% inhibitory concentration (IC50) stood at 459 nM on human PRMT8 and 15.1 nM against human PRMT1.

For the compound `COc1cc(F)ccc1-c1n[nH]cc1CN(C)CCN` [Compound 151], the concentration for half-maximal inhibition (IC50) is 1370 nM on human PRMT8 and 122 nM against human PRMT1.

On to `CC(C)CN(C)C(=O)c1ccc(-c2n[nH]cc2CN(C)CCN)cc1` [Compound 164], for which the results for the IC50 at human PRMT8 and against human PRMT1 were 2180 nM and 107 nM, respectively.

For `CC(C)Cc1ccc(-c2c[nH]nc2CN(C)CCN)cc1` [Compound 170], the IC50 at human PRMT8 was 160 nM; at human PRMT1 it was 11.4 nM.

For the compound `CN(CCN)Cc1c[nH]nc1-c1ccc(OCCO)cc1` [Compound 194], the 50% inhibitory concentration (IC50) worked out at 374 nM against human PRMT8 and 14.2 nM on human PRMT1.

Consider `CNCCN(C)Cc1cn(C)nc1-c1ccc(OC(C)C)c(Cl)c1` [Compound 206], for which the IC50 at human PRMT8 came to 349 nM; against human PRMT1, 7.07 nM.
